Measured values reported in the NIST ThermoML archive (doi:10.1016/j.jct.2009.05.011).
± gives the expanded uncertainty stated by the source.

Assay: mn = molality of the nth substance listed, in mol/kg
Conditions: 101 kPa, Liquid, Vibrating tube method

NCC(=O)N1CCC[C@H]1C(=O)NCC(=O)O [glycyl-L-prolylglycine] + O
Conditions	mass density [kg/m3]
288.15 K, m1 = 0.02017	1000.83 ± 0.1
288.15 K, m1 = 0.0252	1001.26 ± 0.1
288.15 K, m1 = 0.02989	1001.66 ± 0.1
288.15 K, m1 = 0.0347	1002.07 ± 0.1
288.15 K, m1 = 0.04017	1002.54 ± 0.1
288.15 K, m1 = 0.04486	1002.93 ± 0.1
288.15 K, m1 = 0.04775	1003.19 ± 0.1
288.15 K, m1 = 0.05375	1003.69 ± 0.1
303.15 K, m1 = 0.02292	997.573 ± 0.099
303.15 K, m1 = 0.02697	997.912 ± 0.11
303.15 K, m1 = 0.03212	998.333 ± 0.11
303.15 K, m1 = 0.03677	998.728 ± 0.11
303.15 K, m1 = 0.04242	999.195 ± 0.1
303.15 K, m1 = 0.04731	999.598 ± 0.096
303.15 K, m1 = 0.05219	1000.01 ± 0.053
313.15 K, m1 = 0.02757	994.502 ± 0.098
313.15 K, m1 = 0.03212	994.873 ± 0.099
313.15 K, m1 = 0.03715	995.286 ± 0.099
313.15 K, m1 = 0.04242	995.724 ± 0.098
313.15 K, m1 = 0.04731	996.116 ± 0.098
313.15 K, m1 = 0.05169	996.482 ± 0.1

NCC(=O)N[C@@H](Cc1ccccc1)C(=O)NCC(=O)O [glycyl-L-phenylalanylglycine] + O
Conditions	mass density [kg/m3]
288.15 K, m1 = 0.005986	999.628 ± 0.1
288.15 K, m1 = 0.008946	999.888 ± 0.1
288.15 K, m1 = 0.01159	1000.12 ± 0.1
288.15 K, m1 = 0.01398	1000.33 ± 0.1
288.15 K, m1 = 0.01783	1000.66 ± 0.1
288.15 K, m1 = 0.02035	1000.89 ± 0.1
288.15 K, m1 = 0.02318	1001.13 ± 0.1
288.15 K, m1 = 0.0251	1001.3 ± 0.1
303.15 K, m1 = 0.00896	996.415 ± 0.27
303.15 K, m1 = 0.01148	996.632 ± 0.088
303.15 K, m1 = 0.01353	996.804 ± 0.084
303.15 K, m1 = 0.01556	996.971 ± 0.15
303.15 K, m1 = 0.01814	997.19 ± 0.11
303.15 K, m1 = 0.01958	997.317 ± 0.082
303.15 K, m1 = 0.02246	997.559 ± 0.056
303.15 K, m1 = 0.02447	997.735 ± 0.15
313.15 K, m1 = 0.004093	992.563 ± 0.1
313.15 K, m1 = 0.00896	992.969 ± 0.1
313.15 K, m1 = 0.01149	993.182 ± 0.1
313.15 K, m1 = 0.01353	993.351 ± 0.099
313.15 K, m1 = 0.01556	993.516 ± 0.099
313.15 K, m1 = 0.01761	993.683 ± 0.1
313.15 K, m1 = 0.02033	993.916 ± 0.1
313.15 K, m1 = 0.02333	994.159 ± 0.1
313.15 K, m1 = 0.02522	994.324 ± 0.1

CC[C@H](C)[C@H](NC(=O)CN)C(=O)NCC(=O)O [glycyl-L-isoleucylglycine] + O
Conditions	mass density [kg/m3]
288.15 K, m1 = 0.0284	1001.07 ± 0.086
288.15 K, m1 = 0.03948	1001.83 ± 0.086
288.15 K, m1 = 0.04918	1002.5 ± 0.087
288.15 K, m1 = 0.05715	1003.04 ± 0.086
288.15 K, m1 = 0.06935	1003.87 ± 0.086
288.15 K, m1 = 0.07955	1004.56 ± 0.086
288.15 K, m1 = 0.08916	1005.21 ± 0.086
288.15 K, m1 = 0.1012	1006.02 ± 0.087
303.15 K, m1 = 0.01893	996.925 ± 0.086
303.15 K, m1 = 0.0328	997.846 ± 0.09
303.15 K, m1 = 0.04344	998.561 ± 0.092
303.15 K, m1 = 0.04827	998.872 ± 0.085
303.15 K, m1 = 0.05907	999.58 ± 0.084
303.15 K, m1 = 0.06849	1000.21 ± 0.097
303.15 K, m1 = 0.07945	1000.91 ± 0.086
303.15 K, m1 = 0.09989	1002.23 ± 0.083
313.15 K, m1 = 0.02969	994.182 ± 0.086
313.15 K, m1 = 0.04028	994.873 ± 0.085
313.15 K, m1 = 0.05061	995.543 ± 0.085
313.15 K, m1 = 0.05971	996.132 ± 0.084
313.15 K, m1 = 0.07966	997.418 ± 0.084

CSCC[C@H](NC(=O)CN)C(=O)NCC(=O)O [glycyl-L-methionylglycine] + O
Conditions	mass density [kg/m3]
288.15 K, m1 = 0.02065	1000.96 ± 0.1
288.15 K, m1 = 0.02481	1001.33 ± 0.1
288.15 K, m1 = 0.03005	1001.79 ± 0.1
288.15 K, m1 = 0.04038	1002.71 ± 0.1
288.15 K, m1 = 0.05024	1003.58 ± 0.1
288.15 K, m1 = 0.06017	1004.46 ± 0.1
288.15 K, m1 = 0.07183	1005.48 ± 0.1
288.15 K, m1 = 0.07978	1006.18 ± 0.1
288.15 K, m1 = 0.0913	1007.18 ± 0.11
303.15 K, m1 = 0.03024	998.275 ± 0.14
303.15 K, m1 = 0.03988	999.096 ± 0.11
303.15 K, m1 = 0.05998	1000.82 ± 0.096
303.15 K, m1 = 0.06988	1001.65 ± 0.097
303.15 K, m1 = 0.07911	1002.43 ± 0.099
303.15 K, m1 = 0.08988	1003.32 ± 0.11
303.15 K, m1 = 0.1012	1004.27 ± 0.1
313.15 K, m1 = 0.0199	993.923 ± 0.1
313.15 K, m1 = 0.03002	994.787 ± 0.1
313.15 K, m1 = 0.04003	995.629 ± 0.1
313.15 K, m1 = 0.05041	996.504 ± 0.1
313.15 K, m1 = 0.061	997.393 ± 0.1
313.15 K, m1 = 0.07039	998.173 ± 0.1
313.15 K, m1 = 0.08051	999.015 ± 0.1

CC(C)C[C@H](NC(=O)CN)C(=O)NCC(=O)O [glycyl-L-leucylglycine] + O
Conditions	mass density [kg/m3]
288.15 K, m1 = 0.03052	1001.2 ± 0.085
288.15 K, m1 = 0.04107	1001.91 ± 0.086
288.15 K, m1 = 0.05063	1002.57 ± 0.085
288.15 K, m1 = 0.06015	1003.2 ± 0.086
288.15 K, m1 = 0.07034	1003.9 ± 0.086
288.15 K, m1 = 0.08092	1004.6 ± 0.085
288.15 K, m1 = 0.09106	1005.27 ± 0.085
288.15 K, m1 = 0.1008	1005.92 ± 0.086
298.15 K, m1 = 0.01963	998.372 ± 0.085
298.15 K, m1 = 0.03198	999.201 ± 0.083
298.15 K, m1 = 0.04637	1000.16 ± 0.082
298.15 K, m1 = 0.0606	1001.11 ± 0.085
298.15 K, m1 = 0.07265	1001.9 ± 0.087
298.15 K, m1 = 0.08576	1002.77 ± 0.084
298.15 K, m1 = 0.09698	1003.5 ± 0.073
303.15 K, m1 = 0.01876	996.907 ± 0.09
303.15 K, m1 = 0.03847	998.204 ± 0.084
303.15 K, m1 = 0.04881	998.896 ± 0.085
303.15 K, m1 = 0.05715	999.436 ± 0.083
303.15 K, m1 = 0.06905	1000.22 ± 0.081
303.15 K, m1 = 0.07699	1000.73 ± 0.087
303.15 K, m1 = 0.08729	1001.4 ± 0.085
303.15 K, m1 = 0.09709	1002.03 ± 0.073
313.15 K, m1 = 0.01926	993.479 ± 0.086
313.15 K, m1 = 0.02873	994.105 ± 0.085
313.15 K, m1 = 0.04912	995.406 ± 0.085
313.15 K, m1 = 0.06755	996.608 ± 0.084
313.15 K, m1 = 0.07763	997.232 ± 0.083
313.15 K, m1 = 0.0869	997.826 ± 0.083
313.15 K, m1 = 0.1005	998.668 ± 0.082

CC(C)[C@H](NC(=O)CN)C(=O)NCC(=O)O [glycyl-L-valylglycine] + O
Conditions	mass density [kg/m3]
288.15 K, m1 = 0.01862	1000.45 ± 0.089
288.15 K, m1 = 0.02808	1001.13 ± 0.089
288.15 K, m1 = 0.03769	1001.83 ± 0.089
288.15 K, m1 = 0.04662	1002.47 ± 0.089
288.15 K, m1 = 0.05168	1002.82 ± 0.088
288.15 K, m1 = 0.05581	1003.11 ± 0.089
288.15 K, m1 = 0.06152	1003.53 ± 0.089
288.15 K, m1 = 0.07369	1004.39 ± 0.089
288.15 K, m1 = 0.08031	1004.86 ± 0.089
303.15 K, m1 = 0.02786	997.6 ± 0.13
303.15 K, m1 = 0.0373	998.253 ± 0.086
303.15 K, m1 = 0.04619	998.869 ± 0.1
303.15 K, m1 = 0.05567	999.521 ± 0.086
303.15 K, m1 = 0.06481	1000.14 ± 0.091
303.15 K, m1 = 0.07464	1000.82 ± 0.087
303.15 K, m1 = 0.08365	1001.43 ± 0.093
303.15 K, m1 = 0.09397	1002.14 ± 0.087
313.15 K, m1 = 0.02103	993.668 ± 0.088
313.15 K, m1 = 0.02584	993.998 ± 0.088
313.15 K, m1 = 0.03709	994.764 ± 0.087
313.15 K, m1 = 0.05558	996.017 ± 0.087
313.15 K, m1 = 0.06483	996.652 ± 0.087
313.15 K, m1 = 0.0741	997.273 ± 0.087
313.15 K, m1 = 0.08323	997.9 ± 0.086
313.15 K, m1 = 0.09182	998.467 ± 0.085
